Experimental findings from patent US9962452B2, “Soluble complexes of drug analogs and albumin” (Zhuhai Beihai Biotech Co., Ltd., priority 2013, dated 2018) are described below.

By fraction unbound is commonly meant the share of the substance not bound to proteins or other matrix.

This data set has as its target Human serum albumin (HSA) (Homo sapiens, UniProt P02768). Briefly: HSA-Binding Assay (equilibrium dialysis, LC-MS/MS). As to conditions: isolated protein. As for the experimental part:
Equilibrium dialysis was performed in a 24-well BD Gentest Serum Binding System (BD Biosciences, Woburn, Mass.). Human serum albumin (HSA) at 0.6 mM was prepared by dissolving in phosphate buffered saline (PBS: 4.01 mL 1 M K2HPO4+0.99 mL 1 M KH2PO4+1.37 mL 5 M NaCl+43.63 mL water). After washing and soaking the 24-well BD Gentest Serum Binding System with water, 30% ethanol, and PBS, 750 μL of HSA and 250 μL of PBS were dispensed into each donor and receiver well, respectively. 3.75 μL of 1 mM test compound or wafarin (as control) was spiked into HSA in each donor well. The duplicate incubations were performed at 37° C. for 20 hrs.
After incubation, HSA and buffer samples collected from donor and receiver wells, together with calibration standard samples, were prepared in 96-well plates as shown in Table 2.
The plates were then capped, vortexed, and centrifuged at 3500 rpm for 10 minutes. The supernatant was injected into LC-MS/MS. Sample analysis was performed on an LC/MS/MS system composed of Shimadzu Prominence pumps, SIL-20ACHT autosampler, and Applied Biosystems/MDS Sciex API 3200.
For `CCCCC(NC(=O)CCC(=O)O[C@]1(CC)C(=O)OCc2c1cc1n(c2=O)Cc2c-1nc1ccc(O)cc1c2CC)C(=O)O` (stereo partly drawn) [FL-040], the fraction unbound at 20 h, 5 μM was 0.016.

On to `CCCCCCCCCCCCCCCCC(NC(=O)CCC(=O)O[C@]1(CC)C(=O)OCc2c1cc1n(c2=O)Cc2c-1nc1ccc(O)cc1c2CC)C(=O)O` (stereo partly drawn) [FL-003], for which the fraction unbound at 20 h, 5 μM was under 0.001.

In the case of `CCc1c2c(nc3ccc(OC(=O)CCC(=O)N[C@@H](CC(C)C)C(=O)O)cc13)-c1cc3c(c(=O)n1C2)COC(=O)[C@@]3(CC)OC(=O)CCC(=O)N[C@@H](CC(C)C)C(=O)O` [FL-041], the fraction unbound at 20 h, 5 μM is under 0.022.

Take `CCCCCCC(NC(=O)CCC(=O)Oc1ccc2nc3c(c(CC)c2c1)Cn1c-3cc2c(c1=O)COC(=O)[C@@]2(CC)OC(=O)CCC(=O)NC(CCCCCC)C(=O)O)C(=O)O` (stereo partly drawn) [FL-037]: the fraction unbound at 20 h, 5 μM is under 0.023.

The compound `CCc1c2c(nc3ccc(O)cc13)-c1cc3c(c(=O)n1C2)COC(=O)[C@@]3(CC)OC(=O)CCC(=O)N[C@@H](CC(C)C)C(=O)O` [FL-043] had a fraction unbound at 20 h, 5 μM of 0.03.

The compound `CCCCC(NC(=O)CCC(=O)Oc1ccc2nc3c(c(CC)c2c1)Cn1c-3cc2c(c1=O)COC(=O)[C@@]2(CC)OC(=O)CCC(=O)NC(CCCC)C(=O)O)C(=O)O` (stereo partly drawn) [FL-038] yielded a fraction unbound at 20 h, 5 μM of under 0.168.
